# Patent US20090175795A1, “CHIMERIC THERAPEUTIC AGENTS” (Amprotein Corporation, priority 2005, published 2009)
# Key:
# [1] = effect on body weight, 7-day ip injection; assay type: in vivo, mouse; details: for Body weight (X ± SD): n = 5, in g (unit assumed)
# Method: The effects of GLP1-Fc-leptin on body weight were studied. Mice were injected with 0.1 mg of GLP1-Fc-leptin or human IgG1 Fc fragment in the same manner described above daily for seven days. At days 1 and 7, the body weight of each […] was measured and recorded. […] The body weight was measured on days 1, 4, and 7. Effects of leptin on body weight were studied in the same manner described above. More specifically, mice were injected ip. with 0.1 mg/mouse of human recombinant leptin (R&D Systems, Cat# 398-LP) or human IgG Fc twice a day (9 am and 5 pm) for 7 days.
# [2] = tested on: blood glucose; test: intraperitoneal glucose tolerance test (ip GTT) in mice; assay type: in vivo, mouse; set-up: Blood glucose (X ± SD): unit not given here; details: for effect on blood glucose levels in ip GTT: P<0.05
# Method: (§1) First, intraperitoneal glucose tolerance test (ip GTT) was conducted to test GLP -Fc-leptin's action on glucose-dependent insulin secretion. Briefly, mouse blood glucose was measured using one-touch blood glucose strips. A blood sample was obtained from a mouse through tail bleeding. Then, 0.04, 0.1, or 0.2 mg of GLP1-Fc-leptin or control protein human IgG1 Fc fragment were injected ip. Immediately after the injections, 0.2 ml of saturated glucose water solution was injected ip into the mouse. One and two hours later, another blood sample was collected in the same manner for glucose measurement.
# [3] = tested on: blood glucose; test: IP glucose tolerance test repeated at day-1 and day-2 after one injection (long-term effect); assay type: in vivo, mouse; details: for Blood glucose (X ± SD): one injection 0.2 mg, n = 5
# Method: as §1, with “measurement. […] The results are summarized in Tables 1-4 below: The above experiment was repeated with GLP1-Fc-leptin (0.2 mg) at day-1 before the glucose tolerance test. A IP glucose tolerance test was conducted twice at day-1 and day-2 respectively.” for “measurement.”
# [4] = tested on: blood glucose; test: everyday blood glucose level during the 7-day injection period; assay type: in vivo, mouse; details: 0.1 mg daily; for Glucose: one hour after injection, n = 5
# Method: In the above experiments, during the 7-day period, blood glucose levels of each mouse were measured and recorded on each day one hour after injection of GLP1-Fc-leptin (0.1 mg) or IgG1 Fc fragment everyday in the morning.
# [5] = tested on: blood glucose; test: GTT assay in rats; assay type: in vivo, rat; details: small numbers
# Method: (§2) Similarly GTT assays were also conducted in rats and rabbits in small numbers. All the results support the inhibition of GLP1-Fc-leptin on blood glucose level.
# [6] = tested on: blood glucose; test: GTT assay in rabbits; assay type: in vivo, rabbit; details: small numbers
# Method: as §2
substance,measurement,setting,value
"Human leptin: human recombinant leptin (R&D Systems, Cat# 398-LP)",weight loss relative to GLP1-Fc-Leptin,[1]; 0.1 mg/mouse ip twice a day for 7 days,less than half of the weight loss that GLP1-Fc-Leptin induced
same,Body weight (X ± SD),"[1]; leptin study, 0.1 mg/mouse ip twice a day for 7 days, day 1",20.9 ± 2.0
same,Body weight (X ± SD),"[1]; leptin study, 0.1 mg/mouse ip twice a day for 7 days, day 4",20.7 ± 2.3
same,Body weight (X ± SD),"[1]; leptin study, 0.1 mg/mouse ip twice a day for 7 days, day 7",20.1 ± 2.1
same,weight loss when used alone,"[1]; our animal model, pilot experiments, used alone",did not induce significant weight loss
"GLP1-Fc-leptin: fusion protein GLP-1-3xGly-IgG1 Fc-leptin (SEQ ID NO:5), expressed in CHO cells",Blood glucose (X ± SD),"[2]; 0.04 mg ip, 1 hour after IP glucose injection, n = 5",275.8 ± 154.0
same,Blood glucose (X ± SD),"[2]; 0.04 mg ip, 2 hour after IP glucose injection, n = 5",98.0 ± 22.7
same,Blood glucose (X ± SD),"[2]; 0.04 mg ip, before IP glucose injection, n = 5",98.8 ± 29.2
same,Blood glucose (X ± SD),"[2]; 0.1 mg ip, 1 hour after IP glucose injection, n = 4",108.8 ± 44.0
same,Blood glucose (X ± SD),"[2]; 0.1 mg ip, 2 hour after IP glucose injection, n = 4",83.0 ± 21.6
same,Blood glucose (X ± SD),"[2]; 0.1 mg ip, before IP glucose injection, n = 4",67.3 ± 32.1
same,effect on blood glucose levels in ip GTT,[2]; 0.1 mg,significantly inhibited
same,Blood glucose (X ± SD),"[2]; 0.2 mg ip, 1 hour after IP glucose injection, n = 5",113.0 ± 16.2
same,Blood glucose (X ± SD),"[2]; 0.2 mg ip, 2 hour after IP glucose injection, n = 5",82.0 ± 6.2
same,Blood glucose (X ± SD),"[2]; 0.2 mg ip, before IP glucose injection, n = 5",84.4 ± 20.5
same,effect on blood glucose levels in ip GTT,[2]; 0.2 mg,significantly inhibited
same,Blood glucose (X ± SD),"[3]; Day-1 GTT, 1 hour after IP glucose injection",113.0 ± 16.2
same,Blood glucose (X ± SD),"[3]; Day-1 GTT, 2 hour after IP glucose injection",82.0 ± 6.2
same,Blood glucose (X ± SD),"[3]; Day-1 GTT, before IP glucose injection",84.4 ± 20.5
same,Blood glucose (X ± SD),"[3]; Day-2 GTT, 1 hour after IP glucose injection",106.2 ± 25.7
same,Blood glucose (X ± SD),"[3]; Day-2 GTT, 2 hour after IP glucose injection",95.8 ± 21.1
same,Blood glucose (X ± SD),"[3]; Day-2 GTT, before IP glucose injection",92.6 ± 25.3
same,duration of inhibition of blood glucose level,[3]; one injection of 0.2 mg,at least two
same,body weight lost,"[1]; 0.1 mg daily for seven days, at day 7, p<0.05",11.3%
same,Body weight (X ± SD),"[1]; 0.1 mg ip daily for seven days, day 1",24.7 ± 1.3
same,Body weight (X ± SD),"[1]; 0.1 mg ip daily for seven days, day 4",23.7 ± 2.2
same,Body weight (X ± SD),"[1]; 0.1 mg ip daily for seven days, day 7",21.9 ± 1.4
same,everyday blood glucose levels versus IgG1 Fc fragment,[4]; 7-day period,lower blood glucose levels
same,Glucose,[4]; day 1,98.0 ± 13.2 mg/dL
same,Glucose,[4]; day 2,119.0 ± 25.8 mg/dL
same,Glucose,[4]; day 3,91.4 ± 44.6 mg/dL
same,Glucose,[4]; day 4,116.0 ± 34.3 mg/dL
same,Glucose,[4]; day 5,95.6 ± 33.9 mg/dL
same,Glucose,[4]; day 6,102.3 ± 25.7 mg/dL
same,Glucose,[4]; day 7,160.4 ± 18.6 mg/dL
same,effect on blood glucose level in GTT,[5],inhibition
same,effect on blood glucose level in GTT,[6],inhibition
